The text below walks through data of ChEMBL document CHEMBL5260810, “Inhibition of bromodomain-containing protein 9 for the prevention of epigenetically-defined drug resistance” (Bioorg Med Chem Lett, 2017).

In general, IC50 refers to the concentration needed to halve the response being measured. Read a low IC50 as inhibition by little substance. What is called inhibition is the change of the read-out against control, counted positive when it falls. For orientation: Kd means the concentration at which binding is half-saturated.

The structures appear in SMILES notation.

Experiment [1] in a line: Cytotoxicity against human NCI-H2810 cells measured after 8 days. It counts as functional, cell-based. Conditions: NCI-H2810, 192 h.
The subject of a further experiment is MEL-JUSO. Description: Cytotoxicity against human MEL-JUSO cells measured after 8 days. Type of experiment: functional, cell-based. Conditions: 192 h.
Another experiment concerns IGROV-1. In words: Cytotoxicity against human IGROV-1 cells measured after 8 days. Type of experiment: functional, cell-based. Conditions: IGROV-1, 192 h.
Another experiment has as its system SW48. Description: Cytotoxicity against human SW48 cells measured after 8 days. Type of experiment: functional, cell-based. Conditions: SW48, 192 h.
The subject of a further experiment is NCI-H661. In words: Cytotoxicity against human NCI-H661 cells measured after 8 days. Type of experiment: functional, cell-based. Conditions: NCI-H661, 192 h.
Experiment [2] can be described thus: Cytotoxicity against human SNU-719 cells measured after 8 days. It counts as functional, cell-based. Conditions: SNU-719, 192 h.
Experiment [3] addresses Sodium-dependent dopamine transporter (Homo sapiens) (UniProt Q01959). In words: Displacement of […] from recombinant human Dopamine transporter at 10 uM after 120 mins by scintillation counting analysis relative to control. In general terms: In a radioligand displacement assay an active substance lowers the binding of a labelled ligand.
For the next experiment, the system named is U-937. In words: Cytotoxicity against human U-937 cells measured after 8 days. It counts as functional, cell-based. Conditions: U-937, 192 h.
The subject of a further experiment is MDA-MB-468. In words: Cytotoxicity against human MDA-MB-468 cells measured after 8 days. It counts as functional, cell-based. Conditions: MDA-MB-468, 192 h.
The target of experiment [4] is Serine/threonine-protein kinase pim-1 (Homo sapiens) (UniProt P11309). In words: Inhibition of PIM1 (unknown origin) at 1 uM relative to control.
For experiment [5], the target named is Adrenergic receptor alpha-1 (Rattus norvegicus) (UniProt P15823+P23944+P43140). In words: Displacement of [3H]-prazosin from rat alpha1 adrenoceptor at 10 uM after 60 mins by scintillation counting analysis relative to control. Type of experiment: protein assay.
Another experiment deals with A-375. In words: Cytotoxicity against human A-375 cells measured after 8 days. It counts as functional, cell-based. Conditions: A-375, 192 h.
Experiment [6] has as its target Histone acetyltransferase p300 (Homo sapiens, UniProt Q09472). In words: Binding affinity to human partial length EP300 (A1040 to G1161 residues) expressed in bacterial expression system by BROMOscan assay.
The next experiment relates to HEY. Description: Cytotoxicity against human HEY cells measured after 8 days. Type of experiment: functional, cell-based. Conditions: 192 h.
A further experiment relates to LXF-289 cell line. Description: Cytotoxicity against human LXF-289 cell line measured after 8 days. Type of experiment: functional, cell-based. Conditions: LXF-289, 192 h.
The target of experiment [7] is Bromodomain-containing protein 2 (Homo sapiens, UniProt P25440). In words: Binding affinity to human partial length BRD2 bromodomain 1/2 isoform 1 (K71 to D455 residues) by BROMOscan assay.
In the next experiment the test system is Hs-578T. Description: Cytotoxicity against human Hs-578T cells measured after 8 days. It counts as functional, cell-based. Conditions: 192 h.
A further experiment deals with RKO. Description: Cytotoxicity against human RKO cells measured after 8 days. Type of experiment: functional, cell-based. Conditions: 192 h.
For the next experiment, the system named is KP-4. Description: Cytotoxicity against human KP-4 cells measured after 8 days. Type of experiment: functional, cell-based. Conditions: KP-4, 192 h.
For another experiment, the system named is HCC4006. Description: Cytotoxicity against human HCC4006 cells measured after 8 days. Conditions: HCC4006, 192 h. Type of experiment: functional, cell-based.
A further experiment has as its system SW-620. In words: Cytotoxicity against human SW620 cells measured after 8 days. Type of experiment: functional, cell-based. Conditions: SW-620, 192 h.
For a further experiment, the species on record is Homo sapiens. In words: Displacement of [3H] Dofetilide from human potassium channel at 10 uM relative to control.
The target in experiment [8] is Muscarinic acetylcholine receptor M3 (Homo sapiens) (UniProt P20309). Description: Displacement of [3H]4-DAMP from human recombinant M3 receptor at 10 uM after 60 mins by scintillation counting analysis relative to control.
The test system of the next experiment is NCI-H1993. Description: Cytotoxicity against human NCI-H1993 cells measured after 8 days. It counts as functional, cell-based. Conditions: NCI-H1993, 192 h.
A short description of experiment [9]: Cytotoxicity against human OV7 cells measured after 8 days. It counts as functional, cell-based. Conditions: OV7, 192 h.
A further experiment deals with ChaGo-K-1. In words: Cytotoxicity against human ChaGo-K-1 cells measured after 8 days. It counts as functional, cell-based. Conditions: ChaGo-K-1, 192 h.
Another experiment addresses Protein polybromo-1 (Homo sapiens, UniProt Q86U86). In words: Binding affinity to human partial length PBRM1 bromodomain 1 (S178 to E291 residues) expressed in bacterial expression system by BROMOscan assay.
Experiment [10] concerns the target T1, 5-hydroxytryptamine receptor 1A (Homo sapiens) (UniProt P08908).
T1 sequence (whole entry): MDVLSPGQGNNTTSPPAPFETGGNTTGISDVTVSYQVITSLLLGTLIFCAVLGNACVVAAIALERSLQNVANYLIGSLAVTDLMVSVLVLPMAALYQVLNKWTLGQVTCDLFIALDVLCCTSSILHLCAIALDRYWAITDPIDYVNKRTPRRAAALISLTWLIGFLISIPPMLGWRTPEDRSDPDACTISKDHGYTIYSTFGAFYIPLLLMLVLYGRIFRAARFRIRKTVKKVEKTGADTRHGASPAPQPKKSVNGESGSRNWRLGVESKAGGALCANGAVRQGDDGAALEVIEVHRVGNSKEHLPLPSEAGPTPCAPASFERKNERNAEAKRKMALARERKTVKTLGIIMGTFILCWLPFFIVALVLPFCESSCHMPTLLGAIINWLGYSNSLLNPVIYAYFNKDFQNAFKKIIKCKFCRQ
In words: Displacement of [3H]8-OH-DPAT from recombinant human 5-HT1A receptor at 10 uM after 60 mins by scintillation counting analysis relative to control.

A further experiment relates to MEL-HO. In words: Cytotoxicity against human MEL-HO cells measured after 8 days. It counts as functional, cell-based. Conditions: 192 h.

Sequence of Protein polybromo-1 (Q86U86 whole entry, the tested form may be a part): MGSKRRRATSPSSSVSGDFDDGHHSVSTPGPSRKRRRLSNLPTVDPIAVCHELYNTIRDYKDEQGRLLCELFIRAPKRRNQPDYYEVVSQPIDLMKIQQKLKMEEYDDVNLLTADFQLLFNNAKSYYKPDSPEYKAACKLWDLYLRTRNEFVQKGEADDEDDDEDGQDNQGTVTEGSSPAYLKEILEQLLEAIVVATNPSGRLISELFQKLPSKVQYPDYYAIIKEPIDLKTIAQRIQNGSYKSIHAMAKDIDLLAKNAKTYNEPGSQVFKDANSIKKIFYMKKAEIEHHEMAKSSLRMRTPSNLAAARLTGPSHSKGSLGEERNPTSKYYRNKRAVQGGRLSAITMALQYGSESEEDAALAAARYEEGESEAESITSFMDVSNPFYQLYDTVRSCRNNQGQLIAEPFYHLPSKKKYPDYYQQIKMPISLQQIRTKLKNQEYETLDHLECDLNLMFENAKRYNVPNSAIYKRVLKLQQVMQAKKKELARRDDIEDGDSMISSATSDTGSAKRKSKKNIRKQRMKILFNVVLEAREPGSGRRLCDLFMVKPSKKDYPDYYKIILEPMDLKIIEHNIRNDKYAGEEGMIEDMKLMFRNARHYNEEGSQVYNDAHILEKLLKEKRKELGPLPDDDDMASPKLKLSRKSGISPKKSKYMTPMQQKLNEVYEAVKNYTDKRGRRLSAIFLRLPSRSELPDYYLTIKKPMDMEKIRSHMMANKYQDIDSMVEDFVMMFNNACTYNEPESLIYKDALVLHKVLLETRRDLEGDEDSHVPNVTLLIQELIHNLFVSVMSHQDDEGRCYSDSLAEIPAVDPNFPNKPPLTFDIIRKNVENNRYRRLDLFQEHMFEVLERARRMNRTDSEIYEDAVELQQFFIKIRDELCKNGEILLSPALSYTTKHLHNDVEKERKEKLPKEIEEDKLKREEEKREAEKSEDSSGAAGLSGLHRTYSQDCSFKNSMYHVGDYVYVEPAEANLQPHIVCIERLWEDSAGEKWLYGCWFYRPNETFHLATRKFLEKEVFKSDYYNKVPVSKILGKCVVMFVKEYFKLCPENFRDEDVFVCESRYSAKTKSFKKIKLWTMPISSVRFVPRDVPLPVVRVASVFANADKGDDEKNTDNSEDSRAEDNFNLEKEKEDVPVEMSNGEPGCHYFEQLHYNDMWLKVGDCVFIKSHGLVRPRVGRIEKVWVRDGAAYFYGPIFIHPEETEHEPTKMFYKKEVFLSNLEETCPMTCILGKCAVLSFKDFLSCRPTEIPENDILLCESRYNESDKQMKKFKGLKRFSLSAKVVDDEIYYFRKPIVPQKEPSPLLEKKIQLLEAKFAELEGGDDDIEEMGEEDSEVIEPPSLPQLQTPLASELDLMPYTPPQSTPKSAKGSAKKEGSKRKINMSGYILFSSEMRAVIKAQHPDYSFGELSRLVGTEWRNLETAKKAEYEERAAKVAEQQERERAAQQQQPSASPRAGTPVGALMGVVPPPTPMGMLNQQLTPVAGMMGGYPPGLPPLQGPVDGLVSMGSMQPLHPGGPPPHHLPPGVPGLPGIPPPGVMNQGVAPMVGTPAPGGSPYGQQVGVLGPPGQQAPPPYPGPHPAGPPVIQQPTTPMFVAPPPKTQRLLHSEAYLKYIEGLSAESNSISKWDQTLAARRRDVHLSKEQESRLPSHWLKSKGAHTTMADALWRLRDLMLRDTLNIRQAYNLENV
Sequence of Sodium-dependent dopamine transporter (Homo sapiens) (Q01959 whole entry): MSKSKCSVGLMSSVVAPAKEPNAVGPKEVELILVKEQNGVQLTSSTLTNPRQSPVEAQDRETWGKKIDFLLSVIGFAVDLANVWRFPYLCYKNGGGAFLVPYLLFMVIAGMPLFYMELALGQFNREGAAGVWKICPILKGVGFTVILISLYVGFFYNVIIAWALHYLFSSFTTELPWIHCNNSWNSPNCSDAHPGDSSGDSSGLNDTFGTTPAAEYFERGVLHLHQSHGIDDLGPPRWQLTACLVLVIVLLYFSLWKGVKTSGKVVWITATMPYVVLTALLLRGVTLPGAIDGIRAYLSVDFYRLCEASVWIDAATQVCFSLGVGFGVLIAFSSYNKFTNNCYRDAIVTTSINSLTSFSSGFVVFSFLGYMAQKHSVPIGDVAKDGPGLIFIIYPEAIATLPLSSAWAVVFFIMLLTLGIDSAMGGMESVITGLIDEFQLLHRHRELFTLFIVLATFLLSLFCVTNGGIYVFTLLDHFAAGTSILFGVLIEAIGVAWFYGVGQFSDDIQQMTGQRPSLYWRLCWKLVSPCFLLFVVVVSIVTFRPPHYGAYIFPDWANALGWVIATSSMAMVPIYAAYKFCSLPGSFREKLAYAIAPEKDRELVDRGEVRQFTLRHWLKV
Sequence of Histone acetyltransferase p300 (Q09472 whole entry, the tested form may be a part): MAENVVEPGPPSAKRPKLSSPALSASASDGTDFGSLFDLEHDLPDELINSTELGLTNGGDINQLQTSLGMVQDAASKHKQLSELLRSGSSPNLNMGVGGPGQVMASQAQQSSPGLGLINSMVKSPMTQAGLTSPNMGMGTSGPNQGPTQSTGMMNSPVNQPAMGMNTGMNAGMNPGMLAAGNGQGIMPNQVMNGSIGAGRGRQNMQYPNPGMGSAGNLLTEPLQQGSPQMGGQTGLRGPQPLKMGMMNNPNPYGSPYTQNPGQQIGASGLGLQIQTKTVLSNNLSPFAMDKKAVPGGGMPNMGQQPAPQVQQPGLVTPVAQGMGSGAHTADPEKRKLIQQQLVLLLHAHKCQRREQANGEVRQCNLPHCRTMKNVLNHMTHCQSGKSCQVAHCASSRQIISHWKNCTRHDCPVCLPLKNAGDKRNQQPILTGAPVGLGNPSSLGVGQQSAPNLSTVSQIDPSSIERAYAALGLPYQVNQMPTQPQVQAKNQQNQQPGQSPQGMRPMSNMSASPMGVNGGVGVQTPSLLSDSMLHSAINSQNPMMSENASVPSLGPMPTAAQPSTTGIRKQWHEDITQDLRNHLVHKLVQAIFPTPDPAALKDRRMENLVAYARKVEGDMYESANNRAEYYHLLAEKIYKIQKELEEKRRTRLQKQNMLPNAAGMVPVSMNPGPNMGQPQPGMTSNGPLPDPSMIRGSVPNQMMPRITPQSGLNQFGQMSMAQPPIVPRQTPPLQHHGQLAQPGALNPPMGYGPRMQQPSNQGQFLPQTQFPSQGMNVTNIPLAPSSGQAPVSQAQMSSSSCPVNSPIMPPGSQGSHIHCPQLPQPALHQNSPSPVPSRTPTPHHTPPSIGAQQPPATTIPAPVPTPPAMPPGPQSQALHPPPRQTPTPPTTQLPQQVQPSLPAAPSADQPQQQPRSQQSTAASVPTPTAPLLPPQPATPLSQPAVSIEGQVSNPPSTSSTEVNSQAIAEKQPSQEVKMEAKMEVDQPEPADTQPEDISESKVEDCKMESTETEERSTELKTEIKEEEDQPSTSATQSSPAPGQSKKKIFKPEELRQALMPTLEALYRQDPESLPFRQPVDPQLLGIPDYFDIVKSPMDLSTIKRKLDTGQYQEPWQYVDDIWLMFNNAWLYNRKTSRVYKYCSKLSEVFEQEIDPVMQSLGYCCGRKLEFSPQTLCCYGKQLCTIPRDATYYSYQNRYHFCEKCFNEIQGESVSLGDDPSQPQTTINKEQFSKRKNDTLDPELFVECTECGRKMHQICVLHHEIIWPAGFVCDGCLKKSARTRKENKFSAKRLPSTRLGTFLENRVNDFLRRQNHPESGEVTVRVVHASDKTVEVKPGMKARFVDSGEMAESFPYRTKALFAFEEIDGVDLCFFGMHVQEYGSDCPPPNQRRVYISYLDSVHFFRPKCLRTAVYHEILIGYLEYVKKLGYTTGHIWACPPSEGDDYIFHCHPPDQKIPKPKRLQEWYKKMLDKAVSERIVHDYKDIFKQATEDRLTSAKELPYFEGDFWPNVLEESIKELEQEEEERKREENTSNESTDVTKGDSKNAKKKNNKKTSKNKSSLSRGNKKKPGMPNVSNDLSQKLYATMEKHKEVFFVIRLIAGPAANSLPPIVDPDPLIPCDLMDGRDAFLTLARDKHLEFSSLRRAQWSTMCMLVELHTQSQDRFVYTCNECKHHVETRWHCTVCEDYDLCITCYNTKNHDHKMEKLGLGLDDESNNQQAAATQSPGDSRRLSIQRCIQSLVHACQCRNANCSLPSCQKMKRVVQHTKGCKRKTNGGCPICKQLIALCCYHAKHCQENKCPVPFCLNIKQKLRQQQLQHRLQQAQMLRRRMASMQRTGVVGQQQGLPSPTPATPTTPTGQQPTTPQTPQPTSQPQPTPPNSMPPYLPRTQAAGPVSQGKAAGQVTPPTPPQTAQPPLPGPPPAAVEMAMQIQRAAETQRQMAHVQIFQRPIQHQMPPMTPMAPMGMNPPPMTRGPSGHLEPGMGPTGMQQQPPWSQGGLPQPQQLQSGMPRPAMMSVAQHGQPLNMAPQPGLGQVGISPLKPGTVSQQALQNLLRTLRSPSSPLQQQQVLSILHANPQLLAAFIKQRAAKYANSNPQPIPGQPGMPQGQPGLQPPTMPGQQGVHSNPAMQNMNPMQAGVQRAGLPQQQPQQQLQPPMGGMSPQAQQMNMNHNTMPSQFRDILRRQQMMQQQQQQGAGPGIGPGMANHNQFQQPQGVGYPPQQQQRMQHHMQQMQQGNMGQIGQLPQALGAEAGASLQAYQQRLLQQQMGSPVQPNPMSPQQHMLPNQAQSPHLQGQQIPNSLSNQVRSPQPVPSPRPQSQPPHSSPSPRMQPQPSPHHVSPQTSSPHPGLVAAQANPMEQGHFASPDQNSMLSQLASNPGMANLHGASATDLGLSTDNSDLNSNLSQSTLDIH
Sequence of Serine/threonine-protein kinase pim-1 (Homo sapiens) (P11309 whole entry, looked up): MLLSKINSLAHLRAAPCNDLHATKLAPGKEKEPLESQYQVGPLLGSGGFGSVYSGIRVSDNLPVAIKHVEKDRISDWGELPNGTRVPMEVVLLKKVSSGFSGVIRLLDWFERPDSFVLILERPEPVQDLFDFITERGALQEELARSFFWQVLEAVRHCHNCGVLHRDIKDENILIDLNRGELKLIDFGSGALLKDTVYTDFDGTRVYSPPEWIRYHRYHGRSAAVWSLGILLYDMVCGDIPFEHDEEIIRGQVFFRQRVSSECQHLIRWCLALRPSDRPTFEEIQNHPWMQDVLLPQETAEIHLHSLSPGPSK

As to `C/C=C/Cn1cc(-c2ccc(C(C)(C)O)cc2OC)c2cc[nH]c2c1=O`, the IC50 (in experiment [1]; in the experiment on MEL-JUSO; in the experiment with IGROV-1; with SW48; in the experiment with NCI-H661; in experiment [2]) was 20 µM throughout. The IC50 with U-937, with MDA-MB-468, in the experiment on A-375, in the experiment on HEY, with LXF-289 cell line and with Hs-578T was 20 µM each time. The IC50 (in the experiment on RKO; with KP-4; with HCC4006; in the experiment on SW-620; with NCI-H1993; in experiment [9]) was 20 µM in each case. Besides, the IC50 with ChaGo-K-1 came out at 20 µM; in the experiment on MEL-HO it was 16.5 µM. Moreover, the Activity is 15% in experiment [3]; 7% in experiment [5]; -5% in the experiment filed under Homo sapiens; 6% in experiment [8]; 11% in experiment [10]. Moreover, the inhibition in experiment [4] was determined as 0.5%. Also, the dissociation constant (Kd) was found to be 4.5 µM in [6], 2.8 µM in experiment [7] and 7.6 µM at Protein polybromo-1.

In the case of `C/C=C/Cn1cc(-c2ccc(C(=O)N3CCOCC3)cc2)c2cc[nH]c2c1=O`, the IC50 (in experiment [1]; with MEL-JUSO; in the experiment on IGROV-1; in the experiment on SW48; with NCI-H661; in experiment [2]) was 20 µM in each case. Also, the IC50 with U-937, in the experiment with MDA-MB-468, in the experiment with A-375, in the experiment on HEY, in the experiment with LXF-289 cell line and with Hs-578T was 20 µM throughout. For the same molecule, the half-maximal inhibitory concentration (IC50) (with RKO; in the experiment with KP-4; in the experiment with HCC4006; in the experiment with SW-620; with NCI-H1993; in experiment [9]) was 20 µM each time. For the same molecule, the IC50 in the experiment with ChaGo-K-1 and with MEL-HO was 20 µM in each case. Also, the Activity in experiment [3] is 15%; in experiment [5], 7%; in the experiment listed under Homo sapiens, 13%; in experiment [8] it was -13%; in experiment [10], 7%. For the same molecule, in [4], the inhibition is -3.4%. For the same molecule, the dissociation constant Kd in experiment [6] is above 10 µM; in experiment [7] it was 2.3 µM; on Protein polybromo-1, above 10 µM.

Turning to `C/C=C/Cn1cc(-c2cc(OC)c(C(=O)N3CCOCC3)cc2OC)c2cc(C)[nH]c2c1=O`, the IC50 (in experiment [1]; in the experiment with MEL-JUSO; in the experiment with IGROV-1; in the experiment on SW48; in the experiment on NCI-H661; in experiment [2]) was 2 µM in each case. The IC50 with U-937, in the experiment with MDA-MB-468, in the experiment with A-375, with HEY, in the experiment on LXF-289 cell line and with Hs-578T was 2 µM in each case. For the same molecule, the IC50 (in the experiment on RKO; in the experiment with KP-4; with HCC4006; with SW-620; in the experiment on NCI-H1993; in experiment [9]) was 2 µM each time. Also, the IC50 with ChaGo-K-1 and with MEL-HO was 2 µM each time. The Activity in [3] was determined as 11%; in [5] it was 3%; in the experiment listed under Homo sapiens, 18%; in experiment [8], 3%; in [10], 6%. The inhibition in experiment [4] is 2%. Further, the Kd (in experiment [6]; in [7]; on Protein polybromo-1) was above 10 µM throughout.

Take `C/C=C/Cn1cc(-c2cc(OC)c(C(C)(C)O)cc2OC)c2cc(C)[nH]c2c1=O`: the Kd in [6] was above 10 µM; in experiment [7] it was 1.7 µM; on Protein polybromo-1, above 10 µM.
